From the supplement of paper PMC10307832

What was measured:
Experiment in all cases: relative viability (nuclei count vs DMSO), 5 days (fraction); higher = more cells survive
Sorafenib + AZD7762 = compound: CNC(=O)c1cc(Oc2ccc(NC(=O)Nc3ccc(Cl)c(C(F)(F)F)c3)cc2)ccn1 [Sorafenib] + NC(=O)Nc1cc(-c2cccc(F)c2)sc1C(=O)N[C@H]1CCCNC1 [AZD7762] (partner 0.2 µM)
Procedure, shortened: (§1)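 Each reported value is a median over duplicate plates. It expresses relative viability: treated-well nuclei count divided by vehicle-well nuclei count. Lung cancer cell lines in 1536-well plates were dosed by pin tool a day after seeding, alone with one drug or with a fixed anchor-drug dose plus five library-drug doses (not always all listed) in √10 steps, and nuclei were counted after 5 days.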

Sorafenib + Pemetrexed = compound: CNC(=O)c1cc(Oc2ccc(NC(=O)Nc3ccc(Cl)c(C(F)(F)F)c3)cc2)ccn1 [Sorafenib] + Nc1nc2[nH]cc(CCc3ccc(C(=O)N[C@@H](CCC(=O)O)C(=O)O)cc3)c2c(=O)[nH]1 [Pemetrexed] (partner 0.2 µM)
Procedure, shortened: as §1

Sorafenib + Pictilisib = compound: CNC(=O)c1cc(Oc2ccc(NC(=O)Nc3ccc(Cl)c(C(F)(F)F)c3)cc2)ccn1 [Sorafenib] + CS(=O)(=O)N1CCN(Cc2cc3nc(-c4cccc5[nH]ncc45)nc(N4CCOCC4)c3s2)CC1 [Pictilisib] (partner 1 µM)
Procedure, shortened: as §1

Sorafenib + Phenformin = compound: CNC(=O)c1cc(Oc2ccc(NC(=O)Nc3ccc(Cl)c(C(F)(F)F)c3)cc2)ccn1 [Sorafenib] + N=C(N)NC(=N)NCCc1ccccc1 [Phenformin] (partner 250 µM)
Procedure, shortened: as §1

Sorafenib + Trametinib = compound: CNC(=O)c1cc(Oc2ccc(NC(=O)Nc3ccc(Cl)c(C(F)(F)F)c3)cc2)ccn1 [Sorafenib] + CC(=O)Nc1cccc(-n2c(=O)n(C3CC3)c(=O)c3c(Nc4ccc(I)cc4F)n(C)c(=O)c(C)c32)c1 [Trametinib] (partner 0.02 µM)
Procedure, shortened: as §1

Cell Line	relative viability (Sorafenib + AZD7762; first compound 0.08 µM)	relative viability (Sorafenib + AZD7762; first compound 0.253 µM)	relative viability (Sorafenib + AZD7762; first compound 2.53 µM)	relative viability (Sorafenib + AZD7762; first compound 8 µM)	relative viability (Sorafenib + Pemetrexed; first compound 0.08 µM)	relative viability (Sorafenib + Pemetrexed; first compound 0.253 µM)	relative viability (Sorafenib + Pemetrexed; first compound 2.53 µM)	relative viability (Sorafenib + Pemetrexed; first compound 8 µM)	relative viability (Sorafenib + Pictilisib; first compound 0.08 µM)	relative viability (Sorafenib + Pictilisib; first compound 0.253 µM)	relative viability (Sorafenib + Pictilisib; first compound 2.53 µM)	relative viability (Sorafenib + Pictilisib; first compound 8 µM)	relative viability (Sorafenib + Phenformin; first compound 0.08 µM)	relative viability (Sorafenib + Phenformin; first compound 0.253 µM)	relative viability (Sorafenib + Phenformin; first compound 2.53 µM)	relative viability (Sorafenib + Phenformin; first compound 8 µM)	relative viability (Sorafenib + Trametinib; first compound 0.08 µM)	relative viability (Sorafenib + Trametinib; first compound 0.253 µM)	relative viability (Sorafenib + Trametinib; first compound 2.53 µM)	relative viability (Sorafenib + Trametinib; first compound 8 µM)
HCC-827	0.211	0.207	0.215	0.161	0.255	0.288	0.281	0.251	1.19	0.897	0.861	0.727	0.447	0.399	0.447	0.424	0.547	0.582	0.457	0.422
HOP-62	–	0.567	0.405	0.207	0.324	0.303	0.193	0.135	0.685	0.632	0.619	0.68	0.682	0.558	0.54	0.369	0.438	0.45	0.372	0.209
IA-LM	–	–	–	–	–	–	–	–	0.451	0.37	0.311	0.212	–	–	–	–	–	–	–	–
LC-2-ad	0.942	0.86	0.967	0.769	0.305	0.293	0.258	0.274	0.432	0.369	0.32	0.193	0.595	0.495	0.613	0.453	0.934	0.822	0.732	0.396
LCLC-97TM1	0.311	0.139	0.229	0.214	0.154	0.168	0.118	0.226	0.152	0.207	0.211	0.16	0.413	0.377	0.325	0.356	0.198	0.199	0.133	0.103
NCI-H520	–	–	–	–	0.731	0.781	0.58	0.199	0.337	0.322	0.307	0.188	0.673	0.316	0.574	0.253	0.934	0.403	0.518	0.217
NCI-H661	–	–	–	–	0.918	0.688	0.883	0.427	0.456	0.397	0.422	0.286	0.279	0.143	0.289	0.215	0.584	–	0.444	0.291
NCI-H727	0.716	0.6	–	0.502	–	–	–	–	0.332	0.337	0.257	0.311	0.634	0.416	0.439	0.507	0.416	0.351	0.391	0.367
NCI-H1563	–	–	–	–	0.969	0.654	0.775	0.659	0.653	0.523	0.614	0.665	0.709	0.643	0.749	0.532	–	–	–	–
NCI-H1650	–	–	–	–	0.405	0.454	0.531	0.334	0.691	0.529	0.71	0.308	0.557	0.456	0.564	0.164	0.858	0.499	0.752	0.241
NCI-H1703	0.125	0.133	0.134	0.106	–	–	–	–	0.243	0.21	0.197	0.177	–	–	–	–	–	–	–	–
NCI-H2009	–	–	–	–	1.02	0.909	0.83	0.959	0.866	0.621	0.752	0.265	0.47	0.365	0.433	0.157	0.339	0.282	0.204	0.159
NCI-H2023	–	–	–	–	0.267	0.252	0.226	0.121	0.301	0.269	0.263	0.181	0.51	0.395	0.374	0.174	0.686	0.539	0.459	0.112
NCI-H2228	–	–	–	–	0.361	0.323	0.244	0.31	0.384	0.375	0.337	0.529	0.362	0.285	0.259	0.133	0.802	0.377	0.356	0.266
NCI-H2342	0.589	0.409	0.554	0.353	–	0.729	0.78	0.532	–	–	–	–	0.67	0.487	0.528	0.381	0.887	0.749	0.71	0.682
SK-LU-1	–	–	–	–	1.06	0.871	0.897	0.388	0.61	0.439	0.579	0.412	0.641	0.484	0.487	0.195	0.726	0.44	0.302	0.234
SK-MES-1	–	–	–	–	0.999	0.84	0.881	–	0.451	0.439	0.447	0.377	0.689	0.62	0.596	0.424	0.627	0.614	0.315	0.231
SW 900	0.675	0.571	0.571	0.377	0.462	0.479	0.517	0.471	–	–	–	–	0.871	0.602	0.461	0.22	–	0.792	0.934	0.719
SW 1573	–	–	–	–	0.911	–	0.719	0.374	0.464	0.465	0.402	0.257	0.446	0.403	0.388	0.0803	0.549	0.608	0.337	0.131
UMC-11	–	–	–	–	0.869	0.788	0.772	0.474	0.85	0.78	0.759	0.523	0.316	0.301	0.24	0.155	0.854	0.743	0.639	0.612
